35 compounds from the supplement of paper PMC9103864 can be followed below.

Molecules are shown by their SMILES.

The test system of assay [1] is BMSC (primary human bone marrow mesenchymal stromal cells). Nature of the assay: absolute EC50 for viability; higher = less sensitive.
Assay [2] shares this test system. In words: drug sensitivity score (DSS); higher = more sensitive.

Regarding `CC(=O)O[C@H]1C(=O)[C@@]2(C)[C@H]([C@H](OC(=O)c3ccccc3)[C@]3(O)C[C@H](OC(=O)[C@H](O)[C@@H](NC(=O)c4ccccc4)c4ccccc4)C(C)=C1C3(C)C)[C@]1(OC(C)=O)CO[C@@H]1C[C@@H]2O` [Paclitaxel], the “absolute EC50 for viability” value in assay [1] was more than 1 µM. In assay [2], this compound registered a drug sensitivity score of 2.7.
As for `C1=N/C2=N/c3ccc(OCCN4CCCC4)c(c3)COC/C=C/COCc3cccc(c3)C(=C1)N2` [Pacritinib], the “absolute EC50 for viability” value in assay [1] came to 3.67 µM. In assay [2], this compound registered a drug sensitivity score of 4.7.
The matching figures for `CC(=O)c1c(C)c2cnc(Nc3ccc(N4CCNCC4)cn3)nc2n(C2CCCC2)c1=O` [Palbociclib]: more than 10 µM and 2.3.
Take `COc1ccc(COc2cc3oc(=O)c4cc(C(C)O)ccc4c3cc2OC)cc1` (stereo not given) [Palomid-529]: the “absolute EC50 for viability” value in assay [1] was more than 10 µM. In assay [2], this compound returned a drug sensitivity score of 0.
The matching figures for `Cc1[nH]c2ccccc2c1CCNCc1ccc(/C=C/C(=O)NO)cc1` [Panobinostat]: 0.123 µM and 10.2.
As to `Cc1ccc(Nc2nccc(N(C)c3ccc4c(C)n(C)nc4c3)n2)cc1S(N)(=O)=O` [Pazopanib], the “absolute EC50 for viability” value in assay [1] was more than 10 µM. In assay [2], this compound showed a drug sensitivity score of 2.1.
In the same order, the values of `NC(=O)c1cnc2[nH]ccc2c1NC1C2CC3CC1CC(O)(C3)C2` (stereo not given) [Peficitinb] are more than 2.5 µM and 1.7.
As to `Nc1nc2[nH]cc(CCc3ccc(C(=O)N[C@@H](CCC(=O)O)C(=O)O)cc3)c2c(=O)[nH]1` [Pemetrexed], the “absolute EC50 for viability” value in assay [1] is more than 10 µM. Further, the drug sensitivity score in assay [2] was determined as 0.7.
With `OC[C@H]1O[C@@H](n2cnc3c2N=CNC[C@H]3O)C[C@@H]1O` [Pentostatin], the “absolute EC50 for viability” value in assay [1] was more than 10 µM. The same compound yielded a drug sensitivity score in assay [2] of 0.4.
In the same order, the values of `CCCCCCCCCCCCCCCCCCOP(=O)([O-])OC1CC[N+](C)(C)CC1` [Perifosine] are more than 2.5 µM and 0.
As to `NS(=O)(=O)OC[C@@H]1C[C@@H](n2ccc3c(N[C@H]4CCc5ccccc54)ncnc32)C[C@@H]1O` [Pevonedistat], the “absolute EC50 for viability” value in assay [1] was more than 10 µM. Also, the drug sensitivity score in assay [2] amounted to 5.4.
In the same order, the values of `FC(F)(F)c1ccc(CNc2ccc(Cc3c[nH]c4ncc(Cl)cc34)cn2)cn1` [Pexidartinib] are more than 10 µM and 3.6.
In the same order, the values of `CS(=O)(=O)N1CCN(Cc2cc3nc(-c4cccc5[nH]ncc45)nc(N4CCOCC4)c3s2)CC1` [Pictilisib] are 1.28 µM and 11.
In the same order, the values of `CC[C@@H]1C(=O)OC[C@@H]1Cc1cncn1C` [Pilocarpine] are more than 40 µM and 0.
Turning to `CC(C)N(C[C@H]1O[C@@H](n2cnc3c(N)ncnc32)[C@H](O)[C@@H]1O)[C@H]1C[C@@H](CCc2nc3cc(C(C)(C)C)ccc3[nH]2)C1` [Pinometostat], the “absolute EC50 for viability” value in assay [1] was more than 1 µM. In assay [2], this compound yielded a drug sensitivity score of 0.
`Cc1ccc(=O)n(-c2ccccc2)c1` [Pirfenidone]: the “absolute EC50 for viability” value in assay [1] was more than 10 µM. Also, the drug sensitivity score in assay [2] is 0.
In the case of `NCCNc1ccc(NCCN)c2c1C(=O)c1ccncc1C2=O` [Pixantrone], the “absolute EC50 for viability” value in assay [1] is more than 10 µM. The same compound gave a drug sensitivity score in assay [2] of 0.
The matching figures for `c1cc(CN2CCCNCCNCCCNCC2)ccc1CN1CCCNCCNCCCNCC1` [Plerixafor]: more than 10 µM and 0.
Turning to `CO[C@H](C(=O)[C@@H](O)[C@@H](C)O)[C@@H]1Cc2cc3cc(O[C@H]4C[C@@H](O[C@@H]5C[C@@H](O)[C@H](O)[C@@H](C)O5)[C@H](O)[C@@H](C)O4)c(C)c(O)c3c(O)c2C(=O)[C@H]1O[C@H]1C[C@@H](O[C@@H]2C[C@@H](O)[C@@H](O[C@@H]3C[C@](C)(O)[C@H](O)[C@@H](C)O3)[C@@H](C)O2)[C@H](O)[C@@H](C)O1` [Plicamycin], in assay [1], the “absolute EC50 for viability” value is more than 10 µM. This compound also displayed a drug sensitivity score in assay [2] of 2.1.
In the same order, the values of `Nc1cccc2c1C(=O)N(C1CCC(=O)NC1=O)C2=O` (stereo not given) [Pomalidomide] are more than 10 µM and 0.
For the compound `Cc1ccc(C(=O)Nc2ccc(CN3CCN(C)CC3)c(C(F)(F)F)c2)cc1C#Cc1cnc2cccnn12` [Ponatinib], the “absolute EC50 for viability” value in assay [1] was more than 1 µM. In assay [2], this compound came in with a drug sensitivity score of 4.6.
The matching figures for `C=CC(=O)N1CCC(Oc2cc3c(Nc4ccc(Cl)c(Cl)c4F)ncnc3cc2OC)CC1` [Poziotinib]: more than 1 µM and 4.2.
In the case of `CCCCc1nc2cc(/C=C/C(=O)NO)ccc2n1CCN(CC)CC` [Pracinostat], the “absolute EC50 for viability” value in assay [1] is 1.56 µM. This compound came in with a drug sensitivity score in assay [2] of 8.8.
In the same order, the values of `CC[C@H](C)C(=O)O[C@H]1C[C@H](O)C=C2C=C[C@H](C)[C@H](CC[C@@H](O)C[C@@H](O)CC(=O)O)[C@H]21` [Pravastatin] are more than 10 µM and 0.
Turning to `C[C@]12C=CC(=O)C=C1CC[C@@H]1[C@@H]2[C@@H](O)C[C@@]2(C)[C@H]1CC[C@]2(O)C(=O)CO` [Prednisolone], the “absolute EC50 for viability” value in assay [1] was more than 10 µM. This compound yielded a drug sensitivity score in assay [2] of 0.
The matching figures for `Cn1cc(CNCC2CCN(c3ncc(C(=O)NO)cn3)CC2)c2ccccc21` [Quisinostat]: 0.181 µM and 8.3.
In the same order, the values of `CC(C)(C)c1cc(NC(=O)Nc2ccc(-c3cn4c(n3)sc3cc(OCCN5CCOCC5)ccc34)cc2)no1` [Quizartinib] are more than 1 µM and 2.2.
In the same order, the values of `Cn1c(Nc2ccc(C(F)(F)F)cc2)nc2cc(Oc3ccnc(-c4ncc(C(F)(F)F)[nH]4)c3)ccc21` [RAF-265] are more than 1 µM and 2.5.
Take `Nc1cc(F)ccc1NC(=O)/C=C/c1cnn(C/C=C/c2ccccc2)c1` [RGFP966]: in assay [1], the “absolute EC50 for viability” value was more than 10 µM. The same compound displayed a drug sensitivity score in assay [2] of 0.6.
In the same order, the values of `COC(=O)c1ccc([C@H]2c3[nH]c4ccccc4c3C[C@H](C(=O)OC)N2C(=O)CCl)cc1` [RSL3] are more than 10 µM and 0.
For the compound `Cc1cnc(NC(=O)Nc2cc(Br)c(C)cc2OC[C@@H]2CNCCO2)cn1` [Rabusertib], the “absolute EC50 for viability” value in assay [1] is more than 1 µM. In assay [2], this compound registered a drug sensitivity score of 0.
The matching figures for `Cc1cn(-c2cc(NC(=O)c3ccc(C)c(Nc4nccc(-c5cnccn5)n4)c3)cc(C(F)(F)F)c2)cn1` [Radotinib]: more than 10 µM and 0.
On to `CC(C)(C)Cn1c(N)nc2ccc(-c3[nH]c(C(C)(C)C)nc3-c3ccc(F)cc3)nc21` [Ralimetinib], for which, in assay [1], the “absolute EC50 for viability” value is more than 10 µM. Further, the drug sensitivity score in assay [2] was found to be 0.7.
In the same order, the values of `O=C(c1ccc(OCCN2CCCCC2)cc1)c1c(-c2ccc(O)cc2)sc2cc(O)ccc12` [Raloxifene] are 7.96 µM and 2.6.
In the same order, the values of `Cc1nc(=O)c2cc(CN(C)c3ccc(C(=O)N[C@@H](CCC(=O)O)C(=O)O)s3)ccc2[nH]1` [Raltitrexed] are more than 1 µM and 0.
